# Experimental data: US20090105270A1, “Kinase inhibition and anticancer therapy” (priority 2007, published 2009)
# Columns and labels:
# CDK6/cyclinD3(h) = target: T1, CDK6/cyclinD3(h) (Homo sapiens, UniProt Q00534); experiment: Upstate kinase activity inhibition assay CDK6/cyclinD3(h); type: biochemical; settings: 40 min; read-out: percentage of enzyme activity that remains
# T1 construct: purchased Upstate (KinaseProfiler service)
# MST3(h) = MST3(h) (Homo sapiens, UniProt Q9Y6E0); experiment: Upstate kinase activity inhibition assay MST3(h)
# CDK1/cyclinB(h) = CDK1/cyclinB(h) (Homo sapiens, UniProt P06493); experiment: Upstate kinase activity inhibition assay CDK1/cyclinB(h); settings: 40 min, read-out: percentage of enzyme activity that remains
# STK33(h) = STK33(h) (Homo sapiens, UniProt Q9BYT3); experiment: Upstate kinase activity inhibition assay STK33(h); settings: 40 min, read-out: percentage of enzyme activity that remains
# STK33(h), sequence (Q9BYT3 whole entry): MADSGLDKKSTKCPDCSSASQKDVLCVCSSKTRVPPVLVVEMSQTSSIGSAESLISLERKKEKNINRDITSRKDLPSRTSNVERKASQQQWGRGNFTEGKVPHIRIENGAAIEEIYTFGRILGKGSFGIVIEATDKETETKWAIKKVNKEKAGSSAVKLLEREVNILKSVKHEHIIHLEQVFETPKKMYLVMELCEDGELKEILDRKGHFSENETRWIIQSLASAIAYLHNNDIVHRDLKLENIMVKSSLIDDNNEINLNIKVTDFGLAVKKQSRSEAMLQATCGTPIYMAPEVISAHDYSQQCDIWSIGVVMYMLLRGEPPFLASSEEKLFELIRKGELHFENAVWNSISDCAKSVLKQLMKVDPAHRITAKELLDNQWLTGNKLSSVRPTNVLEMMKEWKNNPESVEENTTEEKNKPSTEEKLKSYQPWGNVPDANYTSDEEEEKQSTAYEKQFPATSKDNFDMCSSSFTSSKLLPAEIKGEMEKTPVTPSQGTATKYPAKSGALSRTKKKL
# HIPK1(h) = HIPK1(h) (Homo sapiens, UniProt Q86Z02); experiment: Upstate kinase activity inhibition assay HIPK1(h); settings: 40 min, read-out: percentage of enzyme activity that remains
# HIPK1(h), sequence (Q86Z02 whole entry): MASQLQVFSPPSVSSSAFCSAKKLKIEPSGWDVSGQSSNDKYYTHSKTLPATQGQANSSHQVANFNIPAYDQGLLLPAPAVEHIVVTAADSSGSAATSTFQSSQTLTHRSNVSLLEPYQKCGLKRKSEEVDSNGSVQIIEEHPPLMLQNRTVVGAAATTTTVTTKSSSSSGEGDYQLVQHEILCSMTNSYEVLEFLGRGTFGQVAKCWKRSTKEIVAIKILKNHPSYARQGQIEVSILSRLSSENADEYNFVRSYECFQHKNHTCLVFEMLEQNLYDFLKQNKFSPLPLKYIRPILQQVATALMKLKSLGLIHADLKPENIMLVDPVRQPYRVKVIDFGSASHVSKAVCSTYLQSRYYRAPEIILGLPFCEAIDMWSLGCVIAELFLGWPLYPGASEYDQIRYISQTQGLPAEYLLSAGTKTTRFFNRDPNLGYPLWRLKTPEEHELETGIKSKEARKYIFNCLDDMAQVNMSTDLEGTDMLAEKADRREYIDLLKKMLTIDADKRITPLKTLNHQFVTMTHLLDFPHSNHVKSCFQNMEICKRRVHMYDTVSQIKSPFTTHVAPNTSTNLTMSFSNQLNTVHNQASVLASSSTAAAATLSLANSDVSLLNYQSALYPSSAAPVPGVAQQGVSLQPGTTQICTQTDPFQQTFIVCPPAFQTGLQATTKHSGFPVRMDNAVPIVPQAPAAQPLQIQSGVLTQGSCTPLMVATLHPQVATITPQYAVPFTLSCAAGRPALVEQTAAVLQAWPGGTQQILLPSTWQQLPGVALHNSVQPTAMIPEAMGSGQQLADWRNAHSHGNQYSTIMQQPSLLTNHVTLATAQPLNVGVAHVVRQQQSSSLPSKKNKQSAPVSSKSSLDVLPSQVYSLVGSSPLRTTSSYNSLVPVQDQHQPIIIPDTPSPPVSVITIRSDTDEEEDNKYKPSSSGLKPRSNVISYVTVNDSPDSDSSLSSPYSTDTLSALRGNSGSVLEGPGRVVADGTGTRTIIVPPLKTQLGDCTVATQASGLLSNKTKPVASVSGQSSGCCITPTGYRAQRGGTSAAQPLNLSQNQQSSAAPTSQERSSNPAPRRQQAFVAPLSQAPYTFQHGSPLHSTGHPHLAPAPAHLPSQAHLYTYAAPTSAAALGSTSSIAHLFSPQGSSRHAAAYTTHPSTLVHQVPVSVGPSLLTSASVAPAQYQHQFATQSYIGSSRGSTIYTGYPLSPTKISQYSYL
# ErbB4(h) = ErbB4(h) (Homo sapiens, UniProt Q15303); experiment: Upstate kinase activity inhibition assay ErbB4(h); settings: 40 min, read-out: percentage of enzyme activity that remains
# DMPK(h) = DMPK(h) (Homo sapiens, UniProt Q09013); experiment: Upstate kinase activity inhibition assay DMPK(h); settings: 40 min, read-out: percentage of enzyme activity that remains
# DYRK2(h) = target: T2, DYRK2(h) (Homo sapiens, UniProt Q92630); experiment: Upstate kinase activity inhibition assay DYRK2(h); type: biochemical; settings: 40 min; read-out: percentage of enzyme activity that remains
# T2 construct: purchased Upstate (KinaseProfiler service)
# Fer(h) = target: T3, Fer(h) (Homo sapiens, UniProt P16591); experiment: Upstate kinase activity inhibition assay Fer(h); type: biochemical; settings: 40 min; read-out: percentage of enzyme activity that remains
# T3 construct: purchased Upstate (KinaseProfiler service)
# EphA1(h) = EphA1(h) (Homo sapiens, UniProt P21709); experiment: Upstate kinase activity inhibition assay EphA1(h); settings: 40 min, read-out: percentage of enzyme activity that remains
# MAPK2(h) = target: T4, MAPK2(h) (Homo sapiens, UniProt P28482); experiment: Upstate kinase activity inhibition assay MAPK2(h); type: biochemical; settings: 40 min; read-out: percentage of enzyme activity that remains
# T4 construct: purchased Upstate (KinaseProfiler service)
# ZAP-70(h) = target: T5, ZAP-70(h) (Homo sapiens, UniProt P43403); experiment: Upstate kinase activity inhibition assay ZAP-70(h); type: biochemical; settings: 40 min; read-out: percentage of enzyme activity that remains
# T5 construct: purchased Upstate (KinaseProfiler service)
# PrKX(h) = target: T6, PrKX(h) (Homo sapiens, UniProt P51817); experiment: Upstate kinase activity inhibition assay PrKX(h); type: biochemical; settings: 40 min; read-out: percentage of enzyme activity that remains
# T6 construct: purchased Upstate (KinaseProfiler service)
# T6 sequence (P51817 whole entry): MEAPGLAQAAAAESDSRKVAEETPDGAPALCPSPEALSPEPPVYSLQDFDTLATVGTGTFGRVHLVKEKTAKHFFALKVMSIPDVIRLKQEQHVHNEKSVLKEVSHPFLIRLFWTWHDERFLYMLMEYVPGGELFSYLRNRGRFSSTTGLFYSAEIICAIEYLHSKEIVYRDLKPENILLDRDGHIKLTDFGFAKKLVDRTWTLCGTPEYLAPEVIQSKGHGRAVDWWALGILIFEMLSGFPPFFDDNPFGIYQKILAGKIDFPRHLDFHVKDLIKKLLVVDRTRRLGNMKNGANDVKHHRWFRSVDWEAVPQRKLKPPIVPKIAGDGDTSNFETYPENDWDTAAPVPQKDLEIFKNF
# GSK3α(h) = GSK3α(h) (Homo sapiens, UniProt P49840); experiment: Upstate kinase activity inhibition assay GSK3α(h); settings: 40 min, read-out: percentage of enzyme activity that remains
# PDK1(h) = target: T7, PDK1(h) (Homo sapiens, UniProt O15530); experiment: Upstate kinase activity inhibition assay PDK1(h); type: biochemical; settings: 40 min; read-out: percentage of enzyme activity that remains
# T7 construct: purchased Upstate (KinaseProfiler service)
# PKBγ(h) = target: T8, PKBγ(h) (Homo sapiens, UniProt Q9Y243); experiment: Upstate kinase activity inhibition assay PKBγ(h); type: biochemical; settings: 40 min; read-out: percentage of enzyme activity that remains
# T8 construct: purchased Upstate (KinaseProfiler service)
# T8 sequence (Q9Y243 whole entry): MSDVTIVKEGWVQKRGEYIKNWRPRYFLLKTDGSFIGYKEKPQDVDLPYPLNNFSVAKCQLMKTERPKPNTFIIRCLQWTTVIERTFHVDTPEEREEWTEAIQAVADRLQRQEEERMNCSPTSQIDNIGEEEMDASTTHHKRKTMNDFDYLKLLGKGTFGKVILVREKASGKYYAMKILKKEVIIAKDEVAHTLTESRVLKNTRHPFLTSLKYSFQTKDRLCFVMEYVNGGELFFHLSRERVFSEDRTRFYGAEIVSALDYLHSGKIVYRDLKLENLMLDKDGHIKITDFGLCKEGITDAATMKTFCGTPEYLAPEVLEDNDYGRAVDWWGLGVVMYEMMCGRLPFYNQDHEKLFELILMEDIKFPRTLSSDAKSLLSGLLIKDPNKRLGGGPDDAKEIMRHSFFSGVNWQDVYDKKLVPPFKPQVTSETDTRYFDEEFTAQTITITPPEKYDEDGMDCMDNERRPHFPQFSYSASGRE
# CSK(h) = target: T9, CSK(h) (Homo sapiens, UniProt P41240); experiment: Upstate kinase activity inhibition assay CSK(h); type: biochemical
# T9 construct: purchased Upstate (KinaseProfiler service)
# MLK1(h) = MLK1(h) (Homo sapiens, UniProt P80192); experiment: Upstate kinase activity inhibition assay MLK1(h); settings: 40 min, read-out: percentage of enzyme activity that remains
# MLK1(h), sequence (P80192 whole entry): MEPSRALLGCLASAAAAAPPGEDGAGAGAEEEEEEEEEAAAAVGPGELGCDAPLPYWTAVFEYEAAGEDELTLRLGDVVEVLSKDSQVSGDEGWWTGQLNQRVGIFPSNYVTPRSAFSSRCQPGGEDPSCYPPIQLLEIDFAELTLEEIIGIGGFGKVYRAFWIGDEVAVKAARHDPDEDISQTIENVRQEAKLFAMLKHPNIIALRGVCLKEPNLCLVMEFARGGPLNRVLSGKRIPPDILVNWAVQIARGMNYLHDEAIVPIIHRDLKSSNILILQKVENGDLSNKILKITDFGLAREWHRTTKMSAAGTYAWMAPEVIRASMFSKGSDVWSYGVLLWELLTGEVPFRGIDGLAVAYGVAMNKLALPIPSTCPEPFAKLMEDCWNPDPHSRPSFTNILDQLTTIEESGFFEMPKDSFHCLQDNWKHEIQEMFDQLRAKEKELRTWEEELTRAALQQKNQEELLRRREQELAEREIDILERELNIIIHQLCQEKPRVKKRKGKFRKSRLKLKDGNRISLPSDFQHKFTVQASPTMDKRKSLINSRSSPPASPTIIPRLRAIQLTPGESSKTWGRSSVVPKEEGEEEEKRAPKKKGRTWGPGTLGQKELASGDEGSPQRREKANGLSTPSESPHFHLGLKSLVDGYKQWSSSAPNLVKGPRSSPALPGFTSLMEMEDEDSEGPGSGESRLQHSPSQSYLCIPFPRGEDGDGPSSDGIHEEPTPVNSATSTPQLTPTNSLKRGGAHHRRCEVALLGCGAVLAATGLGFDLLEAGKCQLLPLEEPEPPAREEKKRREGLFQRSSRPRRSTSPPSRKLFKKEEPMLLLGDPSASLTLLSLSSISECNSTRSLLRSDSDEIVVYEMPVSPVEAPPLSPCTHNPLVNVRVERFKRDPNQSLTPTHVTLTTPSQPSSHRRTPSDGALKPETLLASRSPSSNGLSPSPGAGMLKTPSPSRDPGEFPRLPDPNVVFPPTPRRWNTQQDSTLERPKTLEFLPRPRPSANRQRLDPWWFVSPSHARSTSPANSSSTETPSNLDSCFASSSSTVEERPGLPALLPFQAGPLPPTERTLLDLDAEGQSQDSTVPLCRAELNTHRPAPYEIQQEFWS
# DDR2(h) = target: T10, DDR2(h) (Homo sapiens, UniProt Q16832); experiment: Upstate kinase activity inhibition assay DDR2(h); type: biochemical; settings: 40 min; read-out: percentage of enzyme activity that remains
# T10 construct: purchased Upstate (KinaseProfiler service)
# MuSK(h) = MuSK(h) (Homo sapiens, UniProt O15146); experiment: Upstate kinase activity inhibition assay MuSK(h); settings: 40 min, read-out: percentage of enzyme activity that remains
# MuSK(h), sequence (O15146 24-869): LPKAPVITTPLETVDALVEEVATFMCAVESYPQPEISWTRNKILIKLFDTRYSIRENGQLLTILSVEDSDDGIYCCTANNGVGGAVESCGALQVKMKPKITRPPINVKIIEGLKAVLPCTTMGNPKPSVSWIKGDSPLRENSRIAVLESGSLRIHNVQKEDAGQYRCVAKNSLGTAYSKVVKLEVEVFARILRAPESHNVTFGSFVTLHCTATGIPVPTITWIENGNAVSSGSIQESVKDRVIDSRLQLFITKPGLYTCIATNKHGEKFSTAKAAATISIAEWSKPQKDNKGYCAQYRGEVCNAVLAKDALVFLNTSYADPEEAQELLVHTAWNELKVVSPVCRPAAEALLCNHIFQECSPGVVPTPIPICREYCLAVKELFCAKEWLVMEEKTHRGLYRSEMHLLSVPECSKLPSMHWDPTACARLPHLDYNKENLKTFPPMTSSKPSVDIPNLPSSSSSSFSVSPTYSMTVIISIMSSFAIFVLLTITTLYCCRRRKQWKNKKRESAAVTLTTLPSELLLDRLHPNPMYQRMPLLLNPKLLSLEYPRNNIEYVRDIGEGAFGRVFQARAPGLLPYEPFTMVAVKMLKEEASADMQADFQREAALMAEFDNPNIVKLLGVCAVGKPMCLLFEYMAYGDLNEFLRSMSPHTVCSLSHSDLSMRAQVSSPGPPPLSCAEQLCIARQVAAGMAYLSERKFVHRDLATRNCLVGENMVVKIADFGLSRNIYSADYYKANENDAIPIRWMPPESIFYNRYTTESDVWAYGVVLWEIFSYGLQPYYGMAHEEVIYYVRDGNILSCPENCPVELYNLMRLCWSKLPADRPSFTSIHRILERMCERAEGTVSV
# PASK(h) = target: T11, PASK(h) (Homo sapiens, UniProt Q96RG2); experiment: Upstate kinase activity inhibition assay PASK(h); type: biochemical; settings: 40 min; read-out: percentage of enzyme activity that remains
# T11 construct: purchased Upstate (KinaseProfiler service)
# JAK3(h) = JAK3(h) (Homo sapiens, UniProt P52333); experiment: Upstate kinase activity inhibition assay JAK3(h); settings: 40 min, read-out: percentage of enzyme activity that remains
# PKCη(h) = target: T12, PKCη(h) (Homo sapiens, UniProt P24723); experiment: Upstate kinase activity inhibition assay PKCη(h); type: biochemical; settings: 40 min; read-out: percentage of enzyme activity that remains
# T12 construct: purchased Upstate (KinaseProfiler service)
# MSK2(h) = MSK2(h) (Homo sapiens, UniProt O75676); experiment: Upstate kinase activity inhibition assay MSK2(h); settings: 40 min, read-out: percentage of enzyme activity that remains
# ROCK-II(h) = ROCK-II(h) (Homo sapiens, UniProt O75116); experiment: Upstate kinase activity inhibition assay ROCK-II(h); settings: 40 min, read-out: percentage of enzyme activity that remains
# MST1(h) = target: T13, MST1(h) (Homo sapiens, UniProt Q13043); experiment: Upstate kinase activity inhibition assay MST1(h); type: biochemical
# T13 construct: purchased Upstate (KinaseProfiler service)
# SGK3(h) = SGK3(h) (Homo sapiens, UniProt Q96BR1); experiment: Upstate kinase activity inhibition assay SGK3(h); settings: 40 min, read-out: percentage of enzyme activity that remains
# SGK3(h), sequence (Q96BR1 whole entry): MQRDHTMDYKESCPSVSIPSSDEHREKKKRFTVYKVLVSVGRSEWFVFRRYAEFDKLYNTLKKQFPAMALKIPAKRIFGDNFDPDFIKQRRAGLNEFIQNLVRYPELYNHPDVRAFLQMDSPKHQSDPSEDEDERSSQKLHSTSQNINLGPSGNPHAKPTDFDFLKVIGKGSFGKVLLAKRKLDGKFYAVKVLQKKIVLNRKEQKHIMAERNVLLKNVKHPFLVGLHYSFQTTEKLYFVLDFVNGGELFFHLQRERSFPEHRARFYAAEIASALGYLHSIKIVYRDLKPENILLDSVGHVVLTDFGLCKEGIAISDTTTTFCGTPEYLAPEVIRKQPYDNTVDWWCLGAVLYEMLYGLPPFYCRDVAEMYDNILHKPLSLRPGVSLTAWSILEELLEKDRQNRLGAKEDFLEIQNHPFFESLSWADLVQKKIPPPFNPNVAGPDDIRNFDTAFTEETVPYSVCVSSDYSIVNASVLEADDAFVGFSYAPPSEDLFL
# CK2α2(h) = target: T14, CK2α2(h) (Homo sapiens, UniProt P19784); experiment: Upstate kinase activity inhibition assay CK2α2(h); type: biochemical; settings: 40 min; read-out: percentage of enzyme activity that remains
# T14 construct: purchased Upstate (KinaseProfiler service)
# Mnk2(h) = target: T15, Mnk2(h) (Homo sapiens, UniProt Q9HBH9); experiment: Upstate kinase activity inhibition assay Mnk2(h); type: biochemical; settings: 40 min; read-out: percentage of enzyme activity that remains
# T15 construct: purchased Upstate (KinaseProfiler service)
# Ros(h) = target: T16, Ros(h) (Homo sapiens, UniProt P08922); experiment: Upstate kinase activity inhibition assay Ros(h); type: biochemical; settings: 40 min; read-out: percentage of enzyme activity that remains
# T16 construct: purchased Upstate (KinaseProfiler service)
# NEK2(h) = NEK2(h) (Homo sapiens, UniProt P51955); experiment: Upstate kinase activity inhibition assay NEK2(h); settings: 40 min, read-out: percentage of enzyme activity that remains
compound,measurement,setting,value
"Cc1cc(Nc2cc(N3CCN(C)CC3)nc(Sc3ccc(NC(=O)C4CC4)cc3)n2)n[nH]1 [Compound E, Cyclopropane carboxylic acid {4-[4-(4-methyl-piperazin-1-yl)-6-(5-methyl-2H-pyrazol-3-ylamino)-pyrimidin-2-ylsulphanyl]-phenyl}-amide]",remaining activity at 0.2 µM,CDK6/cyclinD3(h),103%
same,remaining activity at 4 µM,CDK6/cyclinD3(h),97%
same,percentage of enzyme activity that remains,MST3(h); 0.2 μM Compound E,97%
same,percentage of enzyme activity that remains,MST3(h); 4 μM Compound E,140%
same,remaining activity at 0.2 µM,CDK1/cyclinB(h),108%
same,remaining activity at 4 µM,CDK1/cyclinB(h),102%
same,remaining activity at 0.2 µM,STK33(h),112%
same,remaining activity at 4 µM,STK33(h),110%
same,remaining activity at 0.2 µM,HIPK1(h),100%
same,remaining activity at 4 µM,HIPK1(h),100%
same,remaining activity at 0.2 µM,ErbB4(h),53%
same,remaining activity at 4 µM,ErbB4(h),52%
same,remaining activity at 0.2 µM,DMPK(h),95%
same,remaining activity at 4 µM,DMPK(h),103%
same,remaining activity at 0.2 µM,DYRK2(h),100%
same,remaining activity at 4 µM,DYRK2(h),110%
same,remaining activity at 0.2 µM,Fer(h),100%
same,remaining activity at 4 µM,Fer(h),48%
same,remaining activity at 0.2 µM,EphA1(h),93%
same,remaining activity at 4 µM,EphA1(h),27%
same,remaining activity at 0.2 µM,MAPK2(h),92%
same,remaining activity at 0.2 µM,ZAP-70(h),75%
same,remaining activity at 4 µM,ZAP-70(h),64%
same,remaining activity at 0.2 µM,PrKX(h),97%
same,remaining activity at 4 µM,PrKX(h),96%
same,remaining activity at 0.2 µM,GSK3α(h),106%
same,remaining activity at 4 µM,GSK3α(h),102%
same,remaining activity at 0.2 µM,PDK1(h),97%
same,remaining activity at 4 µM,PDK1(h),86%
same,remaining activity at 0.2 µM,PKBγ(h),89%
same,remaining activity at 4 µM,PKBγ(h),83%
same,percentage of enzyme activity that remains,CSK(h); 0.2 μM Compound E,108%
same,percentage of enzyme activity that remains,CSK(h); 4 μM Compound E,87%
same,remaining activity at 0.2 µM,MLK1(h),54%
same,remaining activity at 4 µM,MLK1(h),9%
same,remaining activity at 0.2 µM,DDR2(h),100%
same,remaining activity at 0.2 µM,MuSK(h),89%
same,remaining activity at 4 µM,MuSK(h),8%
same,remaining activity at 0.2 µM,PASK(h),98%
same,remaining activity at 0.2 µM,JAK3(h),107%
same,remaining activity at 4 µM,JAK3(h),105%
same,remaining activity at 0.2 µM,PKCη(h),98%
same,remaining activity at 4 µM,PKCη(h),100%
same,remaining activity at 0.2 µM,MSK2(h),117%
same,remaining activity at 4 µM,MSK2(h),97%
same,remaining activity at 0.2 µM,ROCK-II(h),93%
same,remaining activity at 4 µM,ROCK-II(h),106%
same,percentage of enzyme activity that remains,MST1(h); 0.2 μM Compound E,88%
same,percentage of enzyme activity that remains,MST1(h); 4 μM Compound E,38%
same,remaining activity at 0.2 µM,SGK3(h),103%
same,remaining activity at 4 µM,SGK3(h),87%
same,remaining activity at 0.2 µM,CK2α2(h),100%
same,remaining activity at 4 µM,Mnk2(h),96%
same,remaining activity at 4 µM,Ros(h),80%
same,remaining activity at 0.2 µM,NEK2(h),112%
same,remaining activity at 4 µM,NEK2(h),109%
